Laboratory results reported in patent US20090155337A1, “METHOD AND AGENT FOR IN-SITU STABILIZATION OF VASCULAR TISSUE” (ENDOLOGIX, INC., priority 2007, published 2009).

Tested on: collagen
Assay: Shrinkage temperature testing of pericardial tissue fixed (cross-linked) in EGCG/PBS
Conditions: for Shrinkage Temperature: pH 7.42, 37° C., fresh tissue control 62.6 +/− 0.6
Method: A 7 cm×7 cm piece of pericardial tissue was fixed in 40 ml of 0.5% EGCG/phosphate buffered saline (PBS), pH 7.42 in a 100 mm petri dish at 37° C., 82 rpm shaking speed, for 15 min. After 15 minutes, the tissue was quickly rinsed with PBS. Three samples were cut out for immediate shrinkage temperature testing (Group A). Shrinkage temperature can be an indication of the stability of the tissue. Increased shrinkage temperature is associated with an increased resistance to degradation. An additional 7 cm×7 cm piece of pericardial tissue was fixed in 40 ml of 0.5% EGCG/PBS, pH 7.42 in a 100 mm petri dish at 37° C. for 48 hours and quickly rinsed in PBS for 15 minutes. Six samples were cut out for shrinkage temperature testing (Group B). Six samples of fresh pericardial tissue were also cut for shrinkage temperature testing (Group C—Control Group).

Compound	Shrinkage Temperature (Group A: pericardial tissue cross-linked for 15 min in 0.5% EGCG/PBS)	Shrinkage Temperature (Group B: pericardial tissue cross-linked for 48 hours in 0.5% EGCG/PBS)	Stability of collagen via cross-linking (within 15 minutes of application under physiological conditions)
O=C(O[C@@H]1Cc2c(O)cc(O)cc2O[C@@H]1c1cc(O)c(O)c(O)c1)c1cc(O)c(O)c(O)c1 [EGCG, epigallocatechin gallate]	72.2 +/− 0.5 °C	86.3 +/− 0.6 °C	
Catechin			increases the stability of collagen
